From patent publication US9828368B2 (MERCK SHARP & DOHME CORP., priority 2013, dated 2017)

Assays:
human orexin-2 receptor = human orexin-2 receptor (Homo sapiens (Human), UniProt O43614); assay: FLIPR Ca2+ flux assay, hOX2R; assay type: cell-based; details: CHO cells expressing human orexin-2 receptor; agonist 70 pM Ala-6,12 orexin-A
Procedure: In a typical experiment the OX1 and OX2 receptor antagonistic activity of the compounds of the present invention was determined in accordance with the following experimental method. For intracellular calcium measurements, Chinese hamster ovary (CHO) cells expressing the rat orexin-1 receptor or the human orexin-2 receptor, are grown in Iscove's modified DMEM containing 2 mM L-glutamine, […], 1% hypoxanthine-thymidine supplement, 100 U/ml penicillin, 100 μg/ml streptomycin and 10% heat-inactivated fetal calf serum (FCS). The cells are seeded at 20,000 cells/well into Becton-Dickinson black 384-well clear bottom sterile plates coated with poly-D-lysine. All reagents were from GIBCO-Invitrogen Corp. The seeded plates are incubated overnight at 37° C. and 5% CO2. Ala-6,12 human orexin-A as the agonist is prepared as a 1 mM stock solution in 1% bovine serum albumin (BSA) and diluted in assay buffer (HBSS containing 20 mM HEPES, 0.1% BSA and 2.5 mM probenecid, pH7.4) for use in the assay at a final concentration of 70 pM. Test compounds are prepared as 10 mM stock solution in DMSO, then diluted in 384-well plates, first in DMSO, then assay buffer. On the day of the assay, cells are washed 3 times with 100 μl assay buffer and then incubated for 60 min (37° C., 5% CO2) in 60 μl assay buffer containing 1 μM Fluo-4AM ester, 0.02% pluronic acid, and 1% BSA. The dye loading solution is then aspirated and cells are washed 3 times with 100 μl assay buffer. 30 μl of that same buffer is left in each well. Within the Fluorescent Imaging Plate Reader (FLIPR, Molecular Devices), test compounds are added to the plate in a volume of 25 μl, incubated for 5 min and finally 25 μl of agonist is added. Fluorescence is measured for each well at 1 second intervals for 5 minutes and the height of each fluorescence peak is compared to the height of the fluorescence peak induced by 70 pM Ala-6,12 orexin-A with buffer in place of antagonist. […] The intrinsic orexin receptor antagonist activity of a compound which may be used in the present invention may be determined by these assays.

hOX1R = hOX1R (Homo sapiens, UniProt O43613); assay: FLIPR Ca2+ flux assay, hOX1R; assay type: cell-based; details: CHO cells; agonist 70 pM Ala-6,12 orexin-A; rat orexin-1 receptor; read-out: hOX1R FLIPR IC50

Chain of human orexin-2 receptor (O43614 whole entry): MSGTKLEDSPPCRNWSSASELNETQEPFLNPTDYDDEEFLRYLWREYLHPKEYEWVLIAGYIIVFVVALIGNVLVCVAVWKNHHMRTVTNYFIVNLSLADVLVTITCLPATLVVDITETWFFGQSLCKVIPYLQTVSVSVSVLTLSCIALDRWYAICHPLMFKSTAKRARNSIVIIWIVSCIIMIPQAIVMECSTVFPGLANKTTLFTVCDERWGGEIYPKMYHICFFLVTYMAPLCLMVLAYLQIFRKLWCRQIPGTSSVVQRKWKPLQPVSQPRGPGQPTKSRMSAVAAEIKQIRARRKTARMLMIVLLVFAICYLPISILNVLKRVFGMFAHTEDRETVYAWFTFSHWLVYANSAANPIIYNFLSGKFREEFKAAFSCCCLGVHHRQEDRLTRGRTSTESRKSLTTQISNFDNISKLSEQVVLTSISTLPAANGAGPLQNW

| SMILES | IC50 (human orexin-2 receptor) [nM] | IC50 (hOX1R) [nM] |
| --- | --- | --- |
| Cc1oc([C@@H]2CC[C@@H](C)N(C(=O)c3ccccc3C3(C#N)CC3)C2)nc1C(C)(C)O [Example 20, 1-(2-((2R,5R)-5-(4-(2-Hydroxypropan-2-yl)-5-methyloxazol-2-yl)-2-methylpiperidine-1-carbonyl)phenyl)cyclopropanecarbonitrile] | 16.6 | 425 |
| Cc1oc([C@@H]2CC[C@@H](C)N(C(=O)c3ccccc3C3(C#N)CCOCC3)C2)nc1C(C)(C)O [Example 21] | 500 | > 10000 |
| CCOc1ncccc1C(=O)N1C[C@H](c2nc(C(C)(C)O)c(C)o2)CC[C@H]1C [Example 22, (2-Ethoxypyridin-3-yl)((2R,5R)-5-(4-(2-hydroxypropan-2-yl)-5-methyloxazol-2-yl)-2-methylpiperidin-1-yl)methanone] | 297 | > 10000 |
| Cc1oc([C@@H]2CC[C@@H](C)N(C(=O)c3cccc4ccnn34)C2)nc1C(C)(C)O [Example 23, ((2R,5R)-5-(4-(2-Hydroxypropan-2-yl)-5-methyloxazol-2-y1)-2-methylpiperidin-1-yl)(pyrazolo[1,5-a]pyridin-7-yl)methanone] | 110 | > 10000 |
| Cc1oc([C@@H]2CC[C@@H](C)N(C(=O)c3ccccc3-n3ncnn3)C2)nc1C(C)(C)O [Example 24, (2-(2H-Tetrazol-2-yl)phenyl)((2R,5R)-5-(4-(2-hydroxypropan-2-yl)-5-methyloxazol-2-yl)-2-methylpiperidin-1-yl)methanone] | 13.5 | 3840 |
| Cc1oc([C@@H]2CC[C@@H](C)N(C(=O)c3ccsc3-n3nccn3)C2)nc1C(C)(C)O [Example 25, (2-(2H-1,2,3-Triazol-2-yl)thiophen-3-yl)((2R,5R)-5-(4-(2-hydroxypropan-2-yl)-5-methyloxazol-2-yl)-2-methylpiperidin-1-yl)methanone] | 10.7 | 1650 |
| Cc1oc([C@@H]2CC[C@@H](C)N(C(=O)c3ccsc3-c3ncccn3)C2)nc1C(C)(C)O [Example 26, ((2R, 5R)-5-(4-(2-Hydroxypropan-2-yl)-5-methyloxazol-2-yl)-2-methylpiperidin-1-yl)(2-(pyrimidin-2-yl)thiophen-3-yl)methanone] | 42 | 1360 |
| Cc1oc([C@@H]2CC[C@@H](C)N(C(=O)c3ccccc3OC(F)(F)F)C2)nc1C(C)(C)O [Example 28, ((2R,5R)-5-(4-(2-Hydroxypropan-2-yl)-5-methyloxazol-2-yl)-2-methylpiperidin-l-yl)(2-(trifluoromethoxy)phenyl)methanone] | 14.1 | 1400 |
| Cc1oc([C@@H]2CC[C@@H](C)N(C(=O)c3ccccc3OC(C)C)C2)nc1C(C)(C)O [Example 29, ((2R,5R)-5-(4-(2-Hydroxypropan-2-yl)-5-methyloxazol-2-yl)-2-methylpiperidin-1-yl)(2-isopropoxyphenyl)methanone] | 20.4 | 2000 |
| Cc1oc([C@@H]2CC[C@@H](C)N(C(=O)c3nc(Cl)sc3C(C)C)C2)nc1C(C)(C)O [Example 32, (2-Chloro-5-isopropylthiazol-4-yl)((2R,5R)-5-(4-(2-hydroxypropan-2-yl)-5-methyloxazol-2-yl)-2-methylpiperidin-1-yl)methanone] | 160 | > 10000 |
| COC(=O)c1ccccc1C(=O)N1C[C@H](c2nc(C(C)(C)O)c(C)o2)CC[C@H]1C [Example 33, Methyl 2-((2R,5R)-5-(4-(2-hydroxypropan-2-yl)-5-methyloxazol-2-yl)-2-methylpiperidine-1-carbonyl)benzoate] | 23 | 9980 |
| Cc1oc([C@@H]2CC[C@@H](C)N(C(=O)c3ccccc3-c3ncccn3)C2)nc1C(C)(C)O [Example 34, ((2R,5R)-5-(4-(2-Hydroxypropan-2-yl)-5-methyloxazol-2-yl)-2-methylpiperidin-1-yl)(2-(pyrimidin-2-yl)phenyl)methanone] | 56 | 2200 |
| Cc1oc([C@@H]2CC[C@@H](C)N(C(=O)c3ccc(F)cc3-n3nccn3)C2)nc1C(C)(C)O [Example 37] | 19.1 | 1350 |
| Cc1oc([C@@H]2CC[C@@H](C)N(C(=O)c3cccnc3OCC(F)F)C2)nc1C(C)(C)O [Example 38, (2-(2,2-Difluoroethoxy)pyridin-3-yl)((2R,5R)-5-(4-(2-hydroxypropan-2-yl)-5-methyloxazol-2-yl)-2-methylpiperidin-1-yl)methanone] | 14.1 | ~6400 |
| Cc1oc([C@@H]2CC[C@@H](C)N(C(=O)c3cccnc3OCC(F)(F)F)C2)nc1C(C)(C)O [Example 39, ((2R,5R)-5-(4-(2-Hydroxypropan-2-yl)-5-methyloxazol-2-y1)-2-methylpiperidin-1-yl)(2-(2,2,2-trifluoroethoxy)pyridin-3-yl)methanone] | 17.5 | 2130 |
| Cc1oc([C@@H]2CC[C@@H](C)N(C(=O)c3cccnc3OC(C)C)C2)nc1C(C)(C)O [Example 40, ((2R,5R)-5-(4-(2-Hydroxypropan-2-yl)-5-methyloxazol-2-yl)-2-methylpiperidin-1-yl)(2-isopropoxypyridin-3-yl)methanone] | 29.5 | > 10000 |
| COCCc1ccccc1C(=O)N1C[C@H](c2nc(C(C)(C)O)c(C)o2)CC[C@H]1C [Example 41, ((2R,5R)-5-(4-(2-Hydroxypropan-2-yl)-5-methyloxazol-2-yl)-2-methylpiperidin-1-yl)(2-(2-methoxyethyl)phenyl)methanone] | 57 | > 10000 |
| Cc1oc([C@@H]2CC[C@@H](C)N(C(=O)c3cnsc3-n3nccn3)C2)nc1C(C)(C)O [Example 42, (5-(2H-1,2,3-Triazol-2-yl)isothiazol-4-yl)((2R,5R)-5-(4-(2-hydroxypropan-2-yl)-5-methyloxazol-2-yl)-2-methylpiperidin-1-yl)methanone] | 114 | > 10000 |
| Cc1cc(C(=O)N2C[C@H](c3nc(C(C)(C)O)c(C)o3)CC[C@H]2C)c(-n2nccn2)s1 [Example 43, ((2R,5R)-5-(4-(2-Hydroxypropan-2-yl)-5-methyloxazol-2-yl)-2-methylpiperidin-1-yl)(5-methyl-2-(2H-1,2,3-triazol-2-yl)thiophen-3-yl)methanone] | 30 | 1190 |
| CC[C@@](C)(O)c1nc([C@@H]2CC[C@@H](C)N(C(=O)c3ccccc3-n3nccn3)C2)oc1C [Example 44, (2-(2H-1,2,3-Triazol-2-yl)phenyl)((2R,5R)-5-(4-((R)-2-hydroxybutan-2-yl)-5-methyloxazol-2-yl)-2-methylpiperidin-1-yl)methanone] | 31 | 790 |
| CC[C@](C)(O)c1nc([C@@H]2CC[C@@H](C)N(C(=O)c3ccccc3-n3nccn3)C2)oc1C [Example 45, (2-(2H-1,2,3-triazol-2-yl)phenyl)((2R,5R)-5-(4-((S)-2-hydroxybutan-2-yl)-5-methyloxazol-2-yl)-2-methylpiperidin-1-yl)methanone] | 24 | 1220 |
| CC[C@](C)(O)c1nc([C@@H]2CC[C@@H](C)N(C(=O)c3cscc3-n3nccn3)C2)oc1C [Example 46, (4-(2H-1,2,3-triazol-2-yl)thiophen-3-yl)((2R,5R)-5-(4-((S)-2-hydroxybutan-2-yl)-5-methyloxazol-2-yl)-2-methylpiperidin-1-yl)methanone] | 37 | 4700 |
| CC[C@@](C)(O)c1nc([C@@H]2CC[C@@H](C)N(C(=O)c3cscc3-n3nccn3)C2)oc1C [Example 47, (4-(2H-1,2,3-triazol-2-yl)thiophen-3-yl)((2R,5R)-5-(4-((R)-2-hydroxybutan-2-yl)-5-methyloxazol-2-yl)-2-methylpiperidin-1-yl)methanone] | 18 | 9770 |
| C[C@@H]1CC[C@@H](c2nc(C(C)(C)O)c(Cl)o2)CN1C(=O)c1ccccc1-n1nccn1 [Example 52, (2-(2H-1,2,3-Triazol-2-yl)phenyl)((2R,5R)-5-(5-chloro-4-(2-hydroxypropan-2-yl)oxazol-2-yl)-2-methylpiperidin-1-yl)methanone] | 265 | 3160 |
| C[C@@H]1CC[C@@H](c2nc(C(C)(C)O)c(C(F)F)o2)CN1C(=O)c1ccccc1-n1nccn1 [Example 53, (2-(2H-1,2,3-Triazol-2-yl)phenyl)((2R,5R)-5-(5-(difluoromethyl)-4-(2-hydroxypropan-2-yl)oxazol-2-yl)-2-methylpiperidin-1-yl)methanone] | 43 | 316 |
